In patent US8728442B2, “Method of controlling the growth of microorganisms by a composition containing isolated or in vitro synthesized nitrosoamides” (Bayer CropScience LP, priority 2009, dated 2014):
≈ marks a conversion by molar mass, not a printed value. Read-outs that look alike come from different tables or passages of the source.

Experiments:
Penicillium expansum = assay: Fungicidal activity, fumigation of Penicillium expansum spore plates in sealed 6 L containers; type: cell-based; settings: 24 h exposure, further 48 h incubation; for MIC: Penicillium expansum, 24 h
Procedure: Experiments were conducted to determine the fungicidal activity of several compounds of the invention using Penicillium expansum as the test organism.
Plates of potato dextrose agar were streaked with a standard culture of Penicillium expansum spores (0.1 ml of a 2×10^5 cfu/ml) and placed in sealed plastic containers (nominal volume 6 liters). The containers (Rubbermaid) were fitted with a small fan (Radio Shack 12VDC) in the lids to ensure good distribution of the test compounds. The plates were exposed to different volumes (2.5 μl, 5 μl, 10 μl, 20 μl, 40 μl, 80 μl, or 120 μl) of standard solutions (1.0 to 4.0 mg/ml) of tested compounds in ethanol, under ambient conditions. After exposing for 24 h, the plates were removed and incubated for a further 48 h, at ambient temperature, and then monitored for growth of the test organism by visual observation.
The following tables provide summary results of three separate studies to determine the minimum amounts of the compounds needed to produce 100% inhibition of growth of the test organism. Results are expressed as minimal volumes (μl/6 L) and amounts (μg/L) required to produce 100% inhibition.

[1] = test system: Staphylococcus aureus (MRSA) (ATCC 33591); assay: MIC and MBC of Compound 1 and analogs, macrodilution; settings: for MIC: 19 h; for MBC: 25 h
[2] = test system: Staphylococcus aureus Mu50; assay: Lubbock biofilm model: relative ratio of bacterium by qPCR
[3] = test system: Bacillus cereus (ATCC 10702); assay: MIC and MBC by Macrodilution Broth Method; type: cell-based
[4] = test system: Legionella pneumophila (ATCC 33152); assay: microbe, parasite or virus in culture; type: cell-based
[5] = test system: Methicillin Resistant Staphylococcus aureus (MRSA) (ATCC 33591); assay: MIC and MBC by Macrodilution Broth Method; type: cell-based
[6] = test system: Corynebacterium renale (ATCC 10848); assay: MIC and MBC by Macrodilution Broth Method; type: cell-based; settings: ATCC10848, Corynebacterum renale
[7] = test system: Proteus mirabilis (ATCC 3559); assay: MIC and MBC by Macrodilution Broth Method; type: cell-based
[8] = test system: Enterobacter cloacae (ATCC 13047); assay: MIC and MBC by Macrodilution Broth Method; type: cell-based
[9] = Temperature and pH lability (GC-MS of ethanol eluate); type: physicochemical; settings: high pH (above pH 7)
Procedure: As shown at a standard GC/MS injection temperature of 250° C., N-methyl N-nitroso isobutyramide is not detected as it most likely has broken down into other compounds. Therefore, this compound has never been previously identified.

[10] = test system: Listeria monocytogenes (ATCC 13932); assay: MIC and MBC by Macrodilution Broth Method; type: cell-based
[11] = test system: E. coli 0157:H7 (ATCC 43894); assay: MIC and MBC by Macrodilution Broth Method; type: cell-based; settings: ATCC43894, Escherichia coli 0157:H7
[12] = test system: Streptococcus pyogenes (ATCC 10096); assay: MIC and MBC by Macrodilution Broth Method; type: cell-based; settings: ATCC10096, Streptococcus pyrogenes
[13] = test system: Clostridium sporogenes (ATCC 11437); assay: MIC and MBC by Macrodilution Broth Method; type: cell-based; settings: ATCC11437, read-out: MIC concentration (ppm)
[14] = test system: Enterococcus faecalis V583; assay: Lubbock biofilm model: relative ratio of bacterium by qPCR
[15] = test system: Klebsiella pneumoniae (ATCC 35657); assay: MIC and MBC by Macrodilution Broth Method; type: cell-based
[16] = test system: Pseudomonas aeruginosa PAO1, Enterococcus faecalis V583 and Staphylococcus aureus Mu50 biofilm; assay: Lubbock chronic wound biofilm model: biofilm formation and dry weight; settings: biofilm at 24 hours
[17] = test system: Pseudomonas aeruginosa PAO1; assay: Lubbock biofilm model: relative ratio of bacterium by qPCR
[18] = test system: Shigella dysenteriae (ATCC 12021); assay: MIC and MBC by Macrodilution Broth Method; type: cell-based
[19] = Experiment #4, read-out: Amount for 100% inhibition (μg compound/L air)
[20] = Experiment #1, read-out: Amount for 100% inhibition (μg compound/L air)
[21] = Experiment #2, read-out: Amount for 100% inhibition (μg compound/L air)
[22] = Experiment #3, read-out: Amount for 100% inhibition (μg compound/L air)
[23] = read-out: Amount for 100% inhibition (μg compound/L air), Experiment #1
[24] = Experiment #6, read-out: Amount for 100% inhibition (μg compound/L air)
[25] = Experiment #5, read-out: Amount for 100% inhibition (μg compound/L air)
[26] = read-out: MBC concentration (ppm)
[27] = 37° C., 16 to 20 hours, read-out: MIC concentration (ppm)

CCCCC(=O)N(C)N=O [Compound 21, N-methyl-N-nitrosopentanamide]
MIC (Penicillium expansum; [19]): 0.0163 µg/mL (≈ 0.113 µM)

CN(N=O)C(=O)C1CC1 [Compound 7, N-methyl-N-nitrosocyclopropanecarboxamide]
MIC (Penicillium expansum; [20]): 0.0101 µg/mL (≈ 0.0788 µM) | MIC (Penicillium expansum; [21]): 0.01 µg/mL (≈ 0.078 µM) | MIC (Penicillium expansum; [22]): 0.0082 µg/mL (≈ 0.064 µM)

O=NN1CCCCC1=O [Compound 17, 1-nitrosopiperidine-2-one]
MIC (Penicillium expansum; [22]): > 0.0036 µg/mL

CC(=O)N(N=O)C1CC1 [Compound 14, N-cyclopropyl-N-nitrosoacetamide]
MIC (Penicillium expansum; [20]): 0.0278 µg/mL (≈ 0.217 µM)

CC(=O)N(N=O)C(C)C [Compound 16, N-isopropyl-N-nitrosoacetamide]
MIC (Penicillium expansum; [21]): > 0.0806 µg/mL | MIC (Penicillium expansum; [23]): 0.025 µg/mL (≈ 0.192 µM)

C=CC(=O)N(C)N=O [drawing 51]
MIC [1]: > 50 µg/mL | MBC [1]: > 50 µg/mL

CC(C)CC(=O)N(C)N=O [Compound 19, N-3-dimethyl-N-nitrosobutanamide]
Amount for 100% inhibition (μg compound/L air) (Penicillium expansum; Experiment #5): >15.5 μg compound/L air

COCC(=O)N(C)N=O [Compound 6, 2-methoxy-N-methyl-N-nitrosoacetamide]
MIC (Penicillium expansum; [24]): 0.0022 µg/mL (≈ 0.0167 µM)

CCC(=O)N(C)N=O [drawing 53]
MIC [1]: 12.5 µg/mL | MBC [1]: 25 µg/mL

C/C=C/C(=O)N(C)N=O [drawing 52]
MIC [1]: 6.25 µg/mL | MBC [1]: 25 µg/mL

C/C=C/C(=O)N(C)N=O [Compound 8, (2E)-N-methyl-N-nitrosobut-2-enamide]
MIC (Penicillium expansum; [25]): 0.0075 µg/mL (≈ 0.0585 µM)

CCCC(=O)N(C)N=O [Compound 13, N-methyl-N-nitrosobutyramide]
MIC (Penicillium expansum; [20]): 0.0092 µg/mL (≈ 0.0707 µM) | MIC (Penicillium expansum; [21]): 0.0071 µg/mL (≈ 0.0546 µM) | MIC (Penicillium expansum; [22]): 0.0075 µg/mL (≈ 0.0576 µM)

CN(N=O)C(=O)C1CCC1 [Compound 5, N-methyl-N-nitrosocyclobutanecarboxamide]
MIC (Penicillium expansum; [25]): 0.0012 µg/mL (≈ 0.00844 µM)

CCCCCCC(=O)N(C)N=O [Compound 9, N-methyl-N-nitrosoheptanamide]
MIC (Penicillium expansum; [19]): 0.0075 µg/mL (≈ 0.0435 µM)

CCCN(N=O)C(C)=O [Compound 12, N-nitroso-N-propylacetamide]
MIC (Penicillium expansum; [23]): 0.0252 µg/mL (≈ 0.194 µM)

CC(C)C(=O)N(C)N=O [Compound 1, N-methyl N-nitrosoisobutyramide]
S. aureus relative ratio in biofilm ([2]; dilution 1:10, 24 hours): 0.27% ± 0.0% | S. aureus relative ratio in biofilm ([2]; dilution 1:100, 24 hours): 13.9% ± 0.2% | S. aureus relative ratio in biofilm ([2]; dilution 1:1000, 24 hours): 15.2% ± 1.6% | S. aureus relative ratio in biofilm ([2]; dilution 1:10000, 24 hours): 47.2% ± 1.2% | MIC ([3]; ATCC10702, 37° C., 16 to 20 hours, read-out: MIC concentration (ppm)): 6.25 µg/mL (≈ 48 µM) | MBC ([3]; ATCC10702, read-out: MBC concentration (ppm)): 12.5 µg/mL (≈ 96 µM) | MBC ([4]; ATCC33152, read-out: MBC concentration (ppm)): 25 µg/mL (≈ 192 µM) | MIC ([4]; ATCC33152, read-out: MIC concentration (ppm)): 6.25 µg/mL (≈ 48 µM) | MBC [5, 26]: 12.5 µg/mL (≈ 96 µM) | MIC ([5]; read-out: MIC concentration (ppm)): 6.25 µg/mL (≈ 48 µM) | MIC [6, 27]: 6.25 µg/mL (≈ 48 µM) | MBC [6, 26]: 12.5 µg/mL (≈ 96 µM) | MIC [1]: 6.25 µg/mL | MBC [1]: 12.5 µg/mL | MIC ([7]; ATCC3559, 37° C., 16 to 20 hours, read-out: MIC concentration (ppm)): 6.25 µg/mL (≈ 48 µM) | MBC ([7]; ATCC3559, read-out: MBC concentration (ppm)): 12.5 µg/mL (≈ 96 µM) | MIC ([8]; ATCC13047, 37° C., 16 to 20 hours, read-out: MIC concentration (ppm)): 12.5 µg/mL (≈ 96 µM) | MBC ([8]; ATCC13047, read-out: MBC concentration (ppm)): 12.5 µg/mL (≈ 96 µM) | stability to pH [9]: unstable | MIC ([10]; ATCC13932, 37° C., 16 to 20 hours, read-out: MIC concentration (ppm)): 3.13 µg/mL (≈ 24 µM) | MBC ([10]; ATCC13932, read-out: MBC concentration (ppm)): 12.5 µg/mL (≈ 96 µM) | MIC [11, 27]: 12.5 µg/mL (≈ 96 µM) | MBC [11, 26]: 12.5 µg/mL (≈ 96 µM) | MIC [12, 27]: 6.25 µg/mL (≈ 48 µM) | MBC [12, 26]: 6.25 µg/mL (≈ 48 µM) | MIC [13]: 25 µg/mL (≈ 192 µM) | E. faecalis relative ratio in biofilm ([14]; dilution 1:10, 24 hours): 65.5% ± 0.6% | E. faecalis relative ratio in biofilm ([14]; dilution 1:100, 24 hours): 39.5% ± 1.0% | E. faecalis relative ratio in biofilm ([14]; dilution 1:1000, 24 hours): 34.4% ± 0.2% | E. faecalis relative ratio in biofilm ([14]; dilution 1:10000, 24 hours): 32.6% ± 0.3% | MIC ([15]; ATCC35657, 37° C., 16 to 20 hours, read-out: MIC concentration (ppm)): 12.5 µg/mL (≈ 96 µM) | MBC ([15]; ATCC35657, read-out: MBC concentration (ppm)): 12.5 µg/mL (≈ 96 µM) | dry weight mg ± SD ([16]; dilution 1:10): 21.7 ± 3.2 mg | dry weight mg ± SD ([16]; dilution 1:100): 59 ± 4.4 mg | dry weight mg ± SD ([16]; dilution 1:1000): 63 ± 5.3 mg | dry weight mg ± SD ([16]; dilution 1:10000): 79.7 ± 5.5 mg | P. aeruginosa relative ratio in biofilm ([17]; dilution 1:10, 24 hours): 34.3% ± 1.2% | P. aeruginosa relative ratio in biofilm ([17]; dilution 1:100, 24 hours): 46.7% ± 8.0% | P. aeruginosa relative ratio in biofilm ([17]; dilution 1:1000, 24 hours): 50.5% ± 8.4% | P. aeruginosa relative ratio in biofilm ([17]; dilution 1:10000, 24 hours): 20.3% ± 0.9% | MBC ([18]; ATCC12021, read-out: MBC concentration (ppm)): 12.5 µg/mL (≈ 96 µM) | MIC ([18]; ATCC12021, read-out: MIC concentration (ppm)): 6.25 µg/mL (≈ 48 µM) | MIC (Penicillium expansum; [20]): 0.0045 µg/mL (≈ 0.0346 µM) | MIC (Penicillium expansum; [21]): 0.0043 µg/mL (≈ 0.033 µM) | MIC (Penicillium expansum; [22]): 0.004 µg/mL (≈ 0.0307 µM) | MIC (Penicillium expansum; [19]): 0.0084 µg/mL (≈ 0.0645 µM)

CCCCCCC(=O)N(C)N=O [drawing 54]
MIC [1]: 6.25 µg/mL | MBC [1]: 25 µg/mL

CCCCCC(=O)N(C)N=O [Compound 2, N-methyl-N-nitrosohexanamide]
MIC (Penicillium expansum; [19]): 0.0043 µg/mL (≈ 0.0272 µM)

CC(C)C(=O)N(C)N=O [Compound 10, N-methyl-N-nitrosisopropanamide]
Amount for 100% inhibition (μg compound/L air) (Penicillium expansum; Experiment #4): >14.4 μg compound/L air

CC(C)CC(=O)N(C)N=O [drawing 55]
MIC [1]: 0.78 µg/mL | MBC [1]: 25 µg/mL

CCC(=O)N(C)N=O [Compound 20, N-methyl-N-nitrosopropanamide]
MIC (Penicillium expansum; [19]): 0.0075 µg/mL (≈ 0.0646 µM)

C=CC(=O)N(C)N=O [Compound 4, N-methyl-N-nitrosoacrylamide]
MIC (Penicillium expansum; [25]): 0.0011 µg/mL (≈ 0.00964 µM)

CN(N=O)C(=O)CC1CC1 [Compound 3, 2-cyclopropyl-N-methyl-N-nitrosoacetamide]
MIC (Penicillium expansum; [24]): 0.005 µg/mL (≈ 0.0352 µM)

O=NN1CCCC1=O [Compound 18, 1-nitrosopyrrolidin-2-one]
MIC (Penicillium expansum; [21]): > 0.084 µg/mL | MIC (Penicillium expansum; [24]): > 0.0163 µg/mL

CCN(N=O)C(=O)C(C)C [Compound 11, N-ethyl-N-nitrosoisobutyramide]
MIC (Penicillium expansum; [24]): > 0.0147 µg/mL

CCC(C)C(=O)N(C)N=O (stereo not drawn) [Compound 22, N,2-dimethyl-N-nitrosobutanamide]
MIC (Penicillium expansum; [25]): > 0.0152 µg/mL

COCC(=O)N(C)N=O [drawing 50]
MIC [1]: 25 µg/mL | MBC [1]: > 50 µg/mL
